Here are results for one compound from article PMC4057667, “Study on Biopharmaceutics Classification and Oral Bioavailability of a Novel Multikinase Inhibitor NCE for Cancer Therapy” (International Journal of Molecular Sciences, 2014).

Several values for one entry are separate records, joined by “and”; a condition that tells them apart may be missing. Equal values may be shown once.

Data set [1] is described as follows: Biopharmaceutics Classification System (BCS) classification. Conditions: IDR below borderline value of 1 mg·min^−1·cm^−2. From the text:
Targeted small-molecular inhibitors are promising antitumor candidates compared to the traditional chemotherapy drugs due to their high efficiency and low toxicity. Their common formulations are oral preparations with good compliance. The essential parameters controlling oral drug absorption are the permeability of the drug through the gastrointestinal (GI) membrane and the drug solubility/dissolution in GI milieu. Biopharmaceutics Classification System (BCS) is a modern tool to characterize drug permeability and solubility/dissolution [4, 5]. […] By using BCS system, some drug-drug interactions could be prevented and the in vivo bioavailability testing of the immediate release dosage forms of class I and III drugs could be bypassed. Up till now, there is rare systemic report about specific classification method according to BCS, especially for a novel drug candidate.
According to the Food and Drug Administration (FDA) guidance for biowaiver request of immediate-release solid oral dosage forms, a drug substance is considered as high soluble when the highest dose strength is soluble in ≤250 mL of aqueous media over the pH range of 1.0–7.5 [7]. However, the choice of different dose has a great impact on the dose/solubility ratio and then affects the classification of drugs. […]

Data set [2] deals with rat duodenum, jejunum and ileum. The experiment in a line: In situ single-pass intestinal perfusion (SPIP). As to the method:
The blank perfusion buffer solution was composed of 9.80 g Hanks’ Balanced Salts, 5.96 g 4-2(Hydroxyethyl) piperazine-1-ethanesulfonic acid (HEPES), 1.16 g NaCl, 3.50 g D-glucose and 0.37 g NaHCO3. The pH was adjusted to 6.5. […] The perfusate containing 2 μg/mL of NCE with and without 0.4% SDS was applied to three intestinal segments to investigate the effect of SDS on intestinal absorption of NCE. To examine whether there was any concentration-dependent characteristics or site specific absorption of NCE, 2, 20 and 40 μg/mL of NCE containing 0.4% SDS (w/v) were also studied in three intestinal segments using the same rat perfusion model.
Male Sprague-Dawley rats (170–230 g) were obtained from the Laboratory Animal Center, Sichuan University (Chengdu, China). Prior to the experiment, animals were fasted for at least 18 h with free access to water. All animal studies were approved and supervised by the State Key Laboratory of Biotherapy Animal Care and Use Committee (Sichuan University, Chengdu, Sichuan, China). Then, single pass intestine perfusion studies were conducted according to the literature. In brief, rats were anaesthetized by pentobarbital sodium (i.p., […]) and placed on a homeothermic pad to maintain their body temperature. After making a 3–4 cm midline abdominal incision, the small intestinal was exposed. The duodenum, jejunum and ileum were isolated as follows: duodenum segment beginning from 1 cm away from pylorus, jejunum segment beginning from 20 cm away from pylorus and ileum segment beginning at the site 20 cm upwards caecum. Each intestinal segment was approximately 10 cm long. After removing the intestinal content by rinsing with warm saline, two glass cannulas were inserted to the distal and proximal end of the segment. Then, the intestinal segments of interest were connected to a perfusion pump and the outlet tubing was placed at the same height as the inlet. The intestine was handled carefully to maintain an intact blood supply.
The segments were rinsed with perfusate at the rate of 1.0 mL/min for 10 min, and then perfused at the rate of 0.2 mL/min for 30 min to maintain a steady-state. The time was set zero immediately when the perfusion started. The outlet perfused samples were collected every 15 min until 120 min. Then, the samples were centrifuged at 1.3 × 10^4 rpm for 10 min. The supernatant was analyzed by HPLC. The length of tested segments was measured and rats were euthanized after experiment.
Peff is the quantitative parameter estimating the passage rate of a solute across a membrane. It was calculated from the steady-state concentration of NCE in the perfusate. The drug concentration in the perfusate was corrected for changes in the water flux. Meanwhile, the density corrected gravimetric method was employed to calculate the net water flux across the incubated intestinal segment. A known volume of perfusate was weighed using an electronic weighing balance to determine the density of the collected samples. After correcting for water flux, the drug concentration in the effluent perfusate (Cout(cor)), was calculated as following.
(3) Cout(cor)=Cout×Qout/Qin
where Cout is the concentration of tested drug in the effluent perfusates, Qin and Qout are the inlet and outlet flow rate (mL/min), respectively, which are adjusted for liquid density (mL/min).
The calculation of permeability across rat intestinal segment was performed from the intestinal perfusate samples collected over 15–120 min (steady state) using the following equation).
(4) Peff=-Qin ln(Cout(cor)/Cin)/2πrl

With `CNC(=O)c1cc(Oc2ccc(NC(=O)c3cccc(C(F)(F)F)c3)cc2)ccn1.Cc1ccc(S(=O)(=O)O)cc1.O` [NCE, 2-methylcarbamoyl-4-{4-[3-(trifluoromethyl)benzamido]phenoxy} pyridinium 4-methylbenzenesulfonate monohydrate], the solubility class result in data set [1] is given as “low solubility”. The Peff is 0.26 ± 0.25 ^N.S. 10^−4 cm/s in data set [2] (Duodenum, 2 μg/mL, with 0.4% SDS, n = 3); 0.26 ± 0.29 10^−4 cm/s in data set [2] (Duodenum, 2 μg/mL, without SDS, n = 3); 0.21 ± 0.18 10^−4 cm/s in data set [2] (Duodenum, perfusate 2 μg/mL, 0.4% SDS, n = 6); 0.34 ± 0.12 10^−4 cm/s in data set [2] (Duodenum, perfusate 20 μg/mL, 0.4% SDS, n = 6); 0.49 ± 0.29 ^* 10^−4 cm/s and 0.49 ± 0.29 10^−4 cm/s in data set [2] (Duodenum, perfusate 40 μg/mL, n = 6); 0.22 ± 0.15 ^N.S. 10^−4 cm/s in data set [2] (Ileum, 2 μg/mL, with 0.4% SDS, n = 3). Besides, the Peff in data set [2] (Ileum, 2 μg/mL, without SDS, n = 3) is 0.23 ± 0.18 ^N.S. 10^−4 cm/s; in data set [2] (Ileum, perfusate 2 μg/mL, 0.4% SDS, n = 6), 0.23 ± 0.25 ^N.S. 10^−4 cm/s; in data set [2] (Ileum, perfusate 20 μg/mL, 0.4% SDS, n = 6), 0.29 ± 0.10 ^N.S. 10^−4 cm/s; in data set [2] (Ileum, perfusate 40 μg/mL, n = 6), 0.52 ± 0.28 ^N.S. ^* 10^−4 cm/s and 0.52 ± 0.28 ^N.S. 10^−4 cm/s; in data set [2] (Jejunum, 2 μg/mL, with 0.4% SDS, n = 3), 0.25 ± 0.22 ^N.S. 10^−4 cm/s; in data set [2] (Jejunum, 2 μg/mL, without SDS, n = 3) it was 0.25 ± 0.24 ^N.S. 10^−4 cm/s. Also, the Peff is 0.20 ± 0.30 ^N.S. 10^−4 cm/s in data set [2] (Jejunum, perfusate 2 μg/mL, 0.4% SDS, n = 6); 0.30 ± 0.15 ^N.S. 10^−4 cm/s in data set [2] (Jejunum, perfusate 20 μg/mL, 0.4% SDS, n = 6); 0.56 ± 0.26 ^N.S. ^* 10^−4 cm/s and 0.56 ± 0.26 ^N.S. 10^−4 cm/s in data set [2] (Jejunum, perfusate 40 μg/mL, n = 6). Further, the “transportation mechanism in intestine” value in data set [2] (Peff unchanged from 2–40 μg/mL) is recorded as “passive diffusion”. Further, in data set [2] (from Peff compared with theophylline, ranitidine and propranolol), the permeability class entry is “high permeability”. Moreover, in data set [2] (three segments, three concentrations, found in jejunum), the “minimum of Peff” value is 20 ×10⁻⁶ cm/s.
